Measured values reported in PubChem BioAssay AID330 (DTP/NCI, 2004).
“And” between values parts separate entries of the source, which are not always exact repeats. Equal entries are not always repeated. Toxic doses and inconclusive results are not listed. Rule for the calls: active = survival T/C of 150% or more; inactive = T/C below 125% in these data.

Test system: P388 leukemia ip, CD2F1 mice, survival T/C
Assay: NCI In Vivo Anticancer Drug Screen. Data for tumor model P388 Leukemia (intraperitoneal) in CD2F1 (CDF1) mice
Conditions: endpoint: median survival time, higher = longer survival
Method in brief: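 Mice carrying the transplanted tumor received test compound or vehicle. Survival was recorded in each group, and the value is the treated-group measurement divided by that of the vehicle-treated control group.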

[1] = dose: 50.0 mg/kg/injection, schedule: Q01DX005 (ip), vehicle: saline with Tween-80
[2] = dose: 100.0 mg/kg/injection, schedule: Q01DX005 (ip), vehicle: saline with Tween-80
[3] = dose: 12.5 mg/kg/injection, schedule: Q01DX009 (ip), vehicle: saline with Tween-80
[4] = dose: 100.0 mg/kg/injection, schedule: Q01DX009 (ip), vehicle: saline with Tween-80
[5] = dose: 200.0 mg/kg/injection, schedule: Q01DX009 (ip), vehicle: saline with Tween-80
[6] = dose: 50.0 mg/kg/injection, schedule: Q01DX009 (ip), vehicle: Klucel (hydroxypropylcellulose) (HPC)
[7] = dose: 100.0 mg/kg/injection, schedule: Q01DX009 (ip), vehicle: Klucel (hydroxypropylcellulose) (HPC)
[8] = dose: 200.0 mg/kg/injection, schedule: Q01DX009 (ip), vehicle: Klucel (hydroxypropylcellulose) (HPC)
[9] = dose: 12.5 mg/kg/injection, schedule: Q01DX009 (ip), vehicle: Klucel (hydroxypropylcellulose) (HPC)
[10] = dose: 25.0 mg/kg/injection, schedule: Q01DX009 (ip), vehicle: Klucel (hydroxypropylcellulose) (HPC)
[11] = dose: 50.0 mg/kg/injection, schedule: Q01DX005 (ip), vehicle: Klucel (hydroxypropylcellulose) (HPC)
[12] = dose: 100.0 mg/kg/injection, schedule: Q01DX005 (ip), vehicle: Klucel (hydroxypropylcellulose) (HPC)
[13] = dose: 200.0 mg/kg/injection, schedule: Q01DX005 (ip), vehicle: Klucel (hydroxypropylcellulose) (HPC)
[14] = dose: 60.0 mg/kg/injection, schedule: Q01DX005 (ip), vehicle: Klucel (hydroxypropylcellulose) (HPC)
[15] = dose: 120.0 mg/kg/injection, schedule: Q01DX005 (ip), vehicle: Klucel (hydroxypropylcellulose) (HPC)
[16] = dose: 240.0 mg/kg/injection, schedule: Q01DX005 (ip), vehicle: Klucel (hydroxypropylcellulose) (HPC)
[17] = dose: 60.0 mg/kg/injection, schedule: Q01DX005 (ip), vehicle: saline with Tween-80
[18] = dose: 25.0 mg/kg/injection, schedule: Q01DX009 (ip), vehicle: saline with Tween-80
[19] = dose: 50.0 mg/kg/injection, schedule: Q01DX009 (ip), vehicle: saline with Tween-80
[20] = dose: 400.0 mg/kg/injection, schedule: Q01DX009 (ip), vehicle: saline with Tween-80

Measured: T/C

O=S1(=O)CCC(N2CCCCC2)C1 (stereo not given)
inactive: dose: 25.0 mg/kg/injection, schedule: Q01DX009 (ip), vehicle: saline 102 % of control | dose: 50.0 mg/kg/injection, schedule: Q01DX009 (ip), vehicle: saline 94 % of control | dose: 100.0 mg/kg/injection, schedule: Q01DX009 (ip), vehicle: saline 104 % of control | dose: 200.0 mg/kg/injection, schedule: Q01DX009 (ip), vehicle: saline 98 % of control

CC[C@@H]1CN2CCc3c([nH]c4ccccc34)[C@@](C(=O)OC)(c3cc4c(cc3OC)N(C)[C@H]3[C@@](O)(C(=O)OC)[C@H](OC(C)=O)[C@]5(CC)C=CCN6CC[C@]43[C@@H]65)C[C@H](C2)C1=O
inactive: dose: 1.0 mg/kg/injection, schedule: Q01DX001 (ip), vehicle: water 104 % of control | dose: 2.0 mg/kg/injection, schedule: Q01DX001 (ip), vehicle: water 108 % of control | dose: 4.0 mg/kg/injection, schedule: Q01DX001 (ip), vehicle: distilled water + Tween-80 119 % of control | dose: 4.0 mg/kg/injection, schedule: Q01DX001 (ip), vehicle: water 120 % of control | dose: 8.0 mg/kg/injection, schedule: Q01DX001 (ip), vehicle: distilled water + Tween-80 117 % of control | dose: 16.0 mg/kg/injection, schedule: Q01DX001 (ip), vehicle: distilled water + Tween-80 119 % of control

CC(C)(C)OC(=O)c1cccc(Br)c1
inactive: [1] 101 % of control | [2] 104 % of control | dose: 200.0 mg/kg/injection, schedule: Q01DX005 (ip), vehicle: saline with Tween-80 105 % of control

CS/C(C#N)=C(\C#N)SC
inactive: [1] 115 % of control | [2] 113 % of control

CC(=O)ON(C(C)=O)c1ccc(C(=O)OC2(C)CC(C)(C)N=N2)cc1 (stereo not given)
inactive: [3] 86 % of control | [4] 87 % of control | [5] 106 % of control

Cl/C(=C\c1ccccc1)c1nc2ccccc2nc1Cl
inactive: [6] 96 % of control | [7] 89 % of control | [8] 92 % of control

[Co+2].[O-]c1cc2ccccc2cc1/C=N/c1ccccn1.[O-]c1cc2ccccc2cc1/C=N/c1ccccn1.[OH3+].[OH3+]
inactive: dose: 12.5 mg/kg/injection, schedule: Q04DX002 (ip), vehicle: saline with Tween-80 93 % of control | dose: 25.0 mg/kg/injection, schedule: Q04DX002 (ip), vehicle: saline with Tween-80 91 % of control | dose: 50.0 mg/kg/injection, schedule: Q04DX002 (ip), vehicle: saline with Tween-80 88 % of control

O=C(NCC(CC(NC(=O)c1ccccc1)C(=O)O)NC(=O)c1ccccc1)c1ccccc1 (stereo not given)
inactive: [9] 89 % of control | [10] 91 % of control | [6] 93 % of control | [7] 89 % of control | [8] 90 % of control

NC(=O)/C(N=Nc1cc(S(=O)(=O)O)ccc1Cl)=N\Nc1cc(S(=O)(=O)O)ccc1Cl
inactive: [11] 100 % of control | [12] 91 % of control | [13] 94 % of control

O=[N+]([O-])c1ccc(N=C/C=C\Nc2ccc([N+](=O)[O-])cc2)cc1
inactive: [14] 87 % of control | [15] 93 % of control | [16] 104 % of control

C/C(=N\NC(=S)N1CCC(N2CCCCC2)CC1)c1ccccn1
inactive: dose: 6.25 mg/kg/injection, schedule: Q01DX005 (ip), vehicle: saline with Tween-80 112 % of control | dose: 12.5 mg/kg/injection, schedule: Q01DX005 (ip), vehicle: saline with Tween-80 113 % of control

CC(C)(C)N1OC1C(Cl)(Cl)Cl (stereo not given)
inactive: [17] 101 % of control | dose: 120.0 mg/kg/injection, schedule: Q01DX005 (ip), vehicle: saline with Tween-80 104 % of control | dose: 240.0 mg/kg/injection, schedule: Q01DX005 (ip), vehicle: saline with Tween-80 104 % of control

CC1NC(=O)NC(=O)C1=S (stereo not given)
inactive: [11] 112 % of control | [12] 111 % of control | [13] 113 % of control

Cc1nc(=S)c2ncn(-c3ccccc3)c2[nH]1
inactive: [14] 95 % of control | [15] 94 % of control

O=C(O)CSc1nnc2c3ccccc3c3ccccc3c2n1
inactive: [3] 97 % of control | [18] 100 % of control | [19] 100 % of control and 93 % of control | [4] 87 % of control | [5] 101 % of control

COc1cc(O)c(Cc2ccc3c(c2)OCO3)cc1O
inactive: dose: 2.5 mg/kg/injection, schedule: Q01DX009 (ip), vehicle: saline with Tween-80 100 % of control | dose: 5.0 mg/kg/injection, schedule: Q01DX009 (ip), vehicle: saline with Tween-80 100 % of control | dose: 10.0 mg/kg/injection, schedule: Q01DX009 (ip), vehicle: saline with Tween-80 115 % of control

[Cl][Pt+2][Cl].[NH-]CC([NH-])CN
inactive: dose: 6.25 mg/kg/injection, schedule: Q04DX003 (ip), vehicle: saline 101 % of control | dose: 12.5 mg/kg/injection, schedule: Q04DX003 (ip), vehicle: saline 111 % of control | dose: 25.0 mg/kg/injection, schedule: Q04DX003 (ip), vehicle: saline 107 % of control

CCCCCCCCCCCCCCCC(O)S(=O)(=O)O (stereo not given)
inactive: [18] 100 % of control | [19] 100 % of control | [4] 100 % of control

CC(C)(C)N=C(CCNc1ccccc1Cl)Nc1ccccc1Cl
inactive: [19] 103 % of control | [4] 103 % of control | [5] 86 % of control

O=C(O)c1ccc2c(c1Sc1ccc(Cl)cc1)C(=O)c1ccccc1C2=O
inactive: [14] 100 % of control | [15] 90 % of control | [16] 99 % of control

[O-]/[N+](C1C(Cl)C2CC1C1C=CCC12)=[N+](\[O-])C1C(Cl)C2CC1C1C=CCC12 (stereo not given)
inactive: dose: 15.0 mg/kg/injection, schedule: Q01DX005 (ip), vehicle: saline with Tween-80 95 % of control | dose: 30.0 mg/kg/injection, schedule: Q01DX005 (ip), vehicle: saline with Tween-80 92 % of control | [17] 100 % of control and 86 % of control

CCc1cc(COC(C)=O)on1
inactive: [6] 105 % of control | [7] 109 % of control | [8] 109 % of control

CCCCc1ccc2nc(C)cc(N/N=C/c3ccc4c(c3)OCO4)c2c1
inactive: dose: 12.5 mg/kg/injection, schedule: Q01DX005 (ip), vehicle: Klucel (hydroxypropylcellulose) (HPC) 94 % of control | dose: 25.0 mg/kg/injection, schedule: Q01DX005 (ip), vehicle: Klucel (hydroxypropylcellulose) (HPC) 100 % of control | [11] 92 % of control and 94 % of control | [13] 92 % of control

NC(CCCCNC1CCCCC1)C(=O)O (stereo not given)
inactive: [4] 106 % of control | [5] 105 % of control | [20] 100 % of control

O=C(Nc1ccc2c(c1)Cc1cc(NC(=O)C34CC5CC(CC(C5)C3)C4)ccc1-2)C12CC3CC(CC(C3)C1)C2
inactive: dose: 100.0 mg/kg/injection, schedule: Q04DX002 (ip), vehicle: saline with Tween-80 88 % of control | dose: 200.0 mg/kg/injection, schedule: Q04DX002 (ip), vehicle: saline with Tween-80 89 % of control | dose: 400.0 mg/kg/injection, schedule: Q04DX002 (ip), vehicle: saline with Tween-80 92 % of control

CN(C)c1ccc(/C=N/O)cc1
inactive: [9] 86 % of control | [10] 101 % of control and 103 % of control and 110 % of control | [6] 103 % of control and 113 % of control | [7] 104 % of control and 113 % of control | [8] 96 % of control

Ic1ccc(C2CC(c3ccccc3)=NN2c2ccccc2)cc1 (stereo not given)
inactive: [10] 97 % of control | [6] 87 % of control | [7] 87 % of control | [8] 90 % of control

CC1(C)OC1(C)C
inactive: [19] 100 % of control | [4] 104 % of control | [5] 102 % of control | [20] 111 % of control

COc1ccc(OC(=O)CCCl)cc1
inactive: [4] 113 % of control | [5] 108 % of control | [20] 104 % of control

CC1=N/C(=C\c2ccc(Br)cc2)C(=O)O1
inactive: [11] 109 % of control | [12] 98 % of control | [13] 112 % of control

CC1=CC(O)(c2ccccn2)P(=O)(c2ccccc2)C=C1C (stereo not given)
inactive: [14] 115 % of control | [15] 111 % of control | [16] 99 % of control

C=CCN=C(NC(C)(C)C)c1ccccc1
inactive: [11] 107 % of control | [12] 96 % of control
